Assay results as given in patent publication USRE38169E1, “Hyperstabilizing antisense nucleic acid binding agents” (priority 1993, dated 2003).

Legend:
[1] = system: DNA sense (SEQ ID NO. 1) / DNA-PS antisense duplex (PO-PS); test: Binding of drug to duplex (NACS column, A365/A260); design: species or system equine infectious anemia retrovirus; settings: for Final D/N (CC-1065/nucleotide) Bound to Duplex: PO-PS
Procedure: (§1) Oligodeoxyribonucleotides were obtained by chemical synthesis through standard techniques on an automated synthesizer located in the Department of Veterinary Microbiology and Parasitology at Louisiana State University. Antisense MP and PS oligonucleotides were obtained from commercial sources, as was synthetic sense RNA. Poly(rA) was obtained from Sigma Chemical Co. CC-1065 was obtained from the Upjohn Company. Oligonucleotides (0.075 μmol-P each) were mixed in 0.36 ml 0.01 M Na cacodylate buffer, pH 7.2, with CC-1065 in dimethyl formamide (0.04 ml), or with dimethylformamide only. (Note that “μmol-P” denotes μmoles of phosphate; i.e., μmoles of nucleotide bases, rather than of oligonucleotides per se.) Incubations of complementary strands, with or without drug, were carried out at 37° C. for 4 hr. In the initial experiments, unbound drug was separated from nucleotide duplexes by ethanol precipitation. Equivalent results were obtained by trapping the oligonucleotides and CC-1065 on NACS-52 columns, and washing first with low-salt buffer and then with buffer containing 1M NaCl. Unbound CC-1065 was completely retained on the column. […] Samples prepared in this manner could be directly used for determination of binding of the drug to the nucleic acid (as measured by the A365/A260 ratio), with the extinction of CC-1065 absorbance at 365 nm taken as 48,000, and the extinction of the nucleic acid absorption at 260 nm based on its composition. Similar approaches were used with the drug U-71,184, with an assumed extinction of 32,000 at 365 nm.
(§2) When methyl phosphonate and synthetic RNA were used, the purities of the crude oligonucleotides were taken to be about 30%, based on the data sheet prepared by the supplier. (The remainder comprised primarily truncated sequences.) Appropriate excess amounts of these agents were included in the reactions to ensure helix formation. The corresponding sense or antisense oligonucleotides were maintained at 0.075 μmol-P in the reaction. […] Unpurified materials were used in these preliminary studies because of the relatively high cost of purified oligoribonucleotides. The majority of the contributions to A260 for these samples should be due to material that was not duplexed.
(§3) Table 1 summarizes binding data obtained from incubations of CC-1065 with nucleotides at greater than stoichiometric levels; the levels used in these experiments were 1 drug molecule/10 nucleotide residues, which is equivalent to 4 drug molecules/20-mer duplex. […] There seemed to be no difference in drug binding between antisense oligonucleotides with a PO and those with a PS backbone. Again, the 5′-AGTTA-3′ sequence on the sense strand was presumably the primary target, and the 3′-AAGTA-5′ on the antisense probe was presumably the secondary target.

[2] = system: DNA sense (SEQ ID NO. 1) / DNA-PS antisense duplex; test: Duplex strand separation temperature (Tm); type: binding, equine infectious anemia retrovirus
Procedure: (§4) Samples for determining Tm were also obtained by the above procedures. […] Thus the effects of this agent on Tm were carried out with Distamycin in solution with the duplexes tested.
(§5) Tm's were determined on a Gilford 2400 Spectrophotometer set at 260 nm, with a 4-chamber Peltier-based temperature controller. Temperature was ramped linearly at 0.5° C./min. Absorbance data were acquired with a 12-bit A/D converter, and data were processed with Lotus 123W and SigmaPlot software. Tm values were determined from the plots as the midpoint of the thermal transitions.

[3] = system: DNA sense (SEQ ID NO. 1) / DNA-PO antisense duplex (PO-PO); test: Duplex strand separation temperature (Tm); type: binding, equine infectious anemia retrovirus
Procedure: as §4, §5

[4] = system: DNA sense (SEQ ID NO. 1) / DNA-MP antisense duplex (PO-MP); test: Duplex strand separation temperature (Tm); type: binding, equine infectious anemia retrovirus
Procedure: as §4, §5

[5] = system: Salmon Sperm DNA; test: Binding of drug to duplex (NACS column); settings: saturation; initial CC-1065/nucleotide 0.1; 37° C., 4 hr
Procedure: Oligodeoxyribonucleotides were obtained by chemical synthesis through standard techniques on an automated synthesizer located in the Department of Veterinary Microbiology and Parasitology at Louisiana State University. Antisense MP and PS oligonucleotides were obtained from commercial sources, as was synthetic sense RNA. Poly(rA) was obtained from Sigma Chemical Co. CC-1065 was obtained from the Upjohn Company. Oligonucleotides (0.075 μmol-P each) were mixed in 0.36 ml 0.01 M Na cacodylate buffer, pH 7.2, with CC-1065 in dimethyl formamide (0.04 ml), or with dimethylformamide only. (Note that “μmol-P” denotes μmoles of phosphate; i.e., μmoles of nucleotide bases, rather than of oligonucleotides per se.) Incubations of complementary strands, with or without drug, were carried out at 37° C. for 4 hr. In the initial experiments, unbound drug was separated from nucleotide duplexes by ethanol precipitation. Equivalent results were obtained by trapping the oligonucleotides and CC-1065 on NACS-52 columns, and washing first with low-salt buffer and then with buffer containing 1M NaCl. […] Samples prepared in this manner could be directly used for determination of binding of the drug to the nucleic acid (as measured by the A365/A260 ratio), with the extinction of CC-1065 absorbance at 365 nm taken as 48,000, and the extinction of the nucleic acid absorption at 260 nm based on its composition. […]

[6] = system: mRNA of a fragment of the env gene of EIAV; test: In vitro translation (wheat-germ extract, 35S-methionine); type: biochemical; settings: 1.95 μg mRNA; antisense about 3 times mRNA sense; CC-1065 3 times antisense; scintillation spectrometry
Procedure: The in vitro translation studies were performed as follows. A fragment of DNA from the env gene of EIAV was transcribed with an SP-6 polymerase kit, and the resulting mRNA (approximately 600 bases long) was capped and isolated. The transcribed fragment included the target sequence 5′-[…]-3′ (SEQ ID NO. 3) (the CC-1065 binding site is underlined). The corresponding antisense sequence (using normal phosphodiester chemistry) was 5′-[…]-3′ (SEQ ID NO. 4). Translation was performed with a wheat-germ extract (Promega) in the presence of ^35S-methionine. The mRNA's were divided into approximately 2 μg aliquots, and treated according to the protocols listed for Table 3 below. Treated mRNA was separated from small molecules (such as DMSO and CC-1065) with a Sephadex 50-based NICK column. Translation was carried out in 25 μl of buffer containing the wheat germ translation system; the isolated mRNA; amino acids, including the labelled methionine; and RNAsin, an inhibitor of RNase. The proteins produced were divided into two aliquots. One aliquot was fractionated by SDS-PAGE, followed by autoradiography; and the other was analyzed by scintillation spectrometry. The concentrations of antisense oligomers and CC-1065 in the free-solution chemistries were relatively high compared to the sense target, to optimize duplex formation and drug binding. […] The following pairs were different at the P<0.05 level by Student's t-test (unpaired analysis): 1,5; 2,5; 3,4; 3,5; 4,5.

[7] = system: Oligo(dA)-Oligo(dT); test: Binding of drug to duplex (NACS column, A365/A260); settings: for Final D/N (CC-1065/nucleotide) Bound to Duplex: Oligo(dA)-Oligo(dT)
Procedure: as §1, §2, §3

[8] = system: Poly(rA)-Oligo(dT); test: Binding of drug to duplex (NACS column, A365/A260); settings: for Final D/N (CC-1065/nucleotide) Bound to Duplex: Poly(rA)-Oligo(dT)
Procedure: as §1, §2, §3

[9] = system: calf thymus DNA; settings: reported, cited from earlier work
[10] = saturation, initial CC-1065/nucleotide 0.1, 37° C., 4 hr

COc1c(O)c2c(c3cc(C(=O)N4CCc5c4c(O)c(OC)c4[nH]c(C(=O)N6CC7CC78C6=CC(=O)c6[nH]cc(C)c68)cc54)[nH]c13)CCN2C(N)=O (stereo not shown) [CC-1065]
Final D/N (CC-1065/nucleotide) Bound to Duplex ([1]; Initial D/N 0.01): 0.010 ± 0 | Final D/N (CC-1065/nucleotide) Bound to Duplex ([1]; Initial D/N 0.025): 0.024 ± 0.0005 | Final D/N (CC-1065/nucleotide) Bound to Duplex ([1]; Initial D/N 0.04): 0.032 ± 0.001 | Final D/N (CC-1065/nucleotide) Bound to Duplex ([1]; Initial D/N 0.065): 0.047 ± 0.0005 | Final D/N (CC-1065/nucleotide) Bound to Duplex ([1]; Initial D/N 0.10): 0.049 ± 0 | Approx. No. CC-1065 Bound/20 Base Pairs [1, 10]: ~2 | Tm ([2]; CC-1065 initial D/N = 0.025): 81.3 ± 2.3^4 °C | Tm ([2]; CC-1065 initial D/N = 0.1, minimum Tm estimate): ≥ 84.7 ± 1.5^4,5 °C | Duplex Strand Separation Temperature ([2]; DNA / DNA-PS, drug-bound duplex (Table 6)): ≥ 84.7 ± 1.5^4 | Tm Elevation ([2]; PS-PS, highest level of binding obtained): 20.5 °C | Tm ([3]; CC-1065 initial D/N = 0.025, 1M NaCl eluate): 81.7 ± 0.6^4 °C | Tm ([3]; CC-1065 initial D/N = 0.1, minimum Tm estimate (melting not completed)): ≥ 85.3 ± 2.3^4,5 °C | Duplex Strand Separation Temperature ([3]; DNA / DNA-PO, drug-bound duplex (Table 6)): ≥ 85.3 ± 2.3^4 | Tm Elevation ([3]; PO-PO, highest level of binding obtained): 17.3 °C | Tm ([4]; CC-1065 initial D/N = 0.025): 73.0 ± 2.0^4 °C | Tm ([4]; CC-1065 initial D/N = 0.1): 74.0 ± 1.0^4 °C | Duplex Strand Separation Temperature ([4]; DNA / DNA-MP, drug-bound duplex (Table 6)): 74.0 ± 1.04 | Tm Elevation ([4]; PO-MP, highest level of binding obtained): 21.5 °C | Approx. No. CC-1065 Bound/20 Base Pairs [5]: ~2 | DPM S-35 ± standard error [6]: 133.040 ± 13.227 DPM | Final D/N (CC-1065/nucleotide) Bound to Duplex ([7]; Initial D/N 0.01): 0.008 ± 0.001 | Final D/N (CC-1065/nucleotide) Bound to Duplex ([7]; Initial D/N 0.025): 0.018 ± 0.0006 | Final D/N (CC-1065/nucleotide) Bound to Duplex ([7]; Initial D/N 0.04): 0.028 ± 0.006 | Final D/N (CC-1065/nucleotide) Bound to Duplex ([7]; Initial D/N 0.065): 0.058 ± 0.002 | Final D/N (CC-1065/nucleotide) Bound to Duplex ([7]; Initial D/N 0.10): 0.063 ± 0.002 | Approx. No. CC-1065 Bound/20 Base Pairs [7, 10]: ~2.5 | Final D/N (CC-1065/nucleotide) Bound to Duplex ([8]; Initial D/N 0.01): 0.003 ± 0.002 | Final D/N (CC-1065/nucleotide) Bound to Duplex ([8]; Initial D/N 0.025): 0.008 ± 0.004 | Final D/N (CC-1065/nucleotide) Bound to Duplex ([8]; Initial D/N 0.04): 0.011 ± 0.004 | Final D/N (CC-1065/nucleotide) Bound to Duplex ([8]; Initial D/N 0.065): 0.022 ± 0.004 | Final D/N (CC-1065/nucleotide) Bound to Duplex ([8]; Initial D/N 0.10): 0.028 ± 0.001 | Approx. No. CC-1065 Bound/20 Base Pairs [8, 10]: ~1 | Tm ([9]; CC-1065 bound): ~100 °C | Increase in Tm ([9]; under the conditions of the experiment): over 30 °C
